Source: PubChem BioAssay (NCI)
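Step 1: Grow cells in 96-well plates. Step 2: Expose to compound for 48 hours at 5 concentrations. Step 3: Interpolate endpoints linearly; if unreached, use highest concentration. Definition used: TGI = concentration required for complete inhibition of growth.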

Columns and labels:
Test in all cases: NCI tumour cell line growth inhibition, 48 h
[1] = system: 786-0 renal
[2] = system: A498 renal
[3] = system: A549 NSCLC
[4] = system: ACHN renal
[5] = system: BT-549 breast
[6] = system: CAKI-1 renal
[7] = system: DU-145 prostate
[8] = system: EKVX NSCLC
[9] = system: HCC-2998 colon
[10] = system: HCT-116 colon
[11] = system: HCT-15 colon
[12] = system: HOP-62 NSCLC
[13] = system: HOP-92 NSCLC
[14] = system: HS 578T breast
[15] = system: HT29 colon
[16] = system: IGROV1 ovarian
[17] = system: K-562 leukemia
[18] = system: KM12 colon
[19] = system: LOX IMVI melanoma
[20] = system: M14 melanoma
[21] = system: MALME-3M melanoma
[22] = system: MDA-MB-231 breast
[23] = system: MDA-MB-435
[24] = system: MDA-N
[25] = system: MOLT-4 leukemia
[26] = system: NCI-H226 lung
[27] = system: NCI-H23 lung
[28] = system: NCI-H460 lung
[29] = system: NCI-H522 lung
[30] = system: NCI/ADR-RES ovarian
[31] = system: OVCAR-3 ovarian
[32] = system: OVCAR-4 ovarian
[33] = system: OVCAR-5 ovarian
[34] = system: OVCAR-8 ovarian
[35] = system: PC-3 prostate
[36] = system: RXF 393 renal
[37] = system: SF-268 CNS
[38] = system: SF-295 CNS
[39] = system: SK-MEL-2 melanoma
[40] = system: SK-MEL-28 melanoma
[41] = system: SK-MEL-5 melanoma
[42] = system: SN12C renal
[43] = system: SNB-19 CNS
[44] = system: SNB-75 CNS
[45] = system: SR leukemia
[46] = system: SW-620 colon
[47] = system: T-47D breast
[48] = system: TK-10 renal
[49] = system: U251 CNS
[50] = system: UACC-257 melanoma
[51] = system: UACC-62 melanoma
[52] = system: UO-31 renal
[53] = system: CCRF-CEM leukemia
[54] = system: COLO 205 colon
[55] = system: HL-60(TB) leukemia
[56] = system: MCF7 breast
[57] = system: RPMI-8226 leukemia
[58] = system: SF-539 CNS
[59] = system: SK-OV-3 ovarian

In the case of `NC(=O)CS(=O)CC(N)C(=O)O` (centres undefined), the TGI [1] is reported as greater than 100 µM, the TGI [2] is reported as greater than 100 µM and the TGI [3] is reported as greater than 100 µM. It also gave a TGI [4] greater than 100 µM, a TGI [5] greater than 100 µM and a TGI [6] greater than 100 µM. The TGI [7] was greater than 100 µM, the TGI [8] was greater than 100 µM and the TGI [9] was greater than 100 µM. It also gave a TGI [10] greater than 100 µM, a TGI [11] greater than 100 µM and a TGI [12] greater than 100 µM. It also gave a TGI [13] greater than 100 µM, a TGI [14] greater than 100 µM and a TGI [15] greater than 100 µM. It also gave a TGI [16] greater than 100 µM, a TGI [17] greater than 100 µM and a TGI [18] greater than 100 µM. The TGI [19] was greater than 100 µM, the TGI [20] was greater than 100 µM and the TGI [21] was greater than 100 µM. It also gave a TGI [22] greater than 100 µM, a TGI [23] greater than 100 µM and a TGI [24] greater than 100 µM. For the same compound, the TGI [25] was greater than 100 µM, the TGI [26] was greater than 100 µM and the TGI [27] was greater than 100 µM. For the same compound, the TGI [28] was greater than 100 µM, the TGI [29] was greater than 100 µM and the TGI [30] was greater than 100 µM. For the same compound, the TGI [31] was greater than 100 µM, the TGI [32] was greater than 100 µM and the TGI [33] was greater than 100 µM. The TGI [34] was greater than 100 µM, the TGI [35] was greater than 100 µM and the TGI [36] was greater than 100 µM. It also gave a TGI [37] greater than 100 µM, a TGI [38] greater than 100 µM and a TGI [39] greater than 100 µM. The TGI [40] was greater than 100 µM, the TGI [41] was greater than 100 µM and the TGI [42] was greater than 100 µM. For the same compound, the TGI [43] was greater than 100 µM, the TGI [44] was greater than 100 µM and the TGI [45] was greater than 100 µM. It also gave a TGI [46] greater than 100 µM, a TGI [47] greater than 100 µM and a TGI [48] greater than 100 µM. For the same compound, the TGI [49] was greater than 100 µM, the TGI [50] was greater than 100 µM and the TGI [51] was greater than 100 µM. For the same compound, the TGI [52] was greater than 100 µM.
For `CCOC(=O)N(C)C1(c2ccccc2)CCN(CCCC(=O)c2ccc(F)cc2)CC1`, the TGI [1] was 88.7 µM, the TGI [2] was greater than 100 µM and the TGI [3] was greater than 100 µM. For the same compound, the TGI [4] was greater than 100 µM, the TGI [6] was greater than 100 µM and the TGI [53] was greater than 100 µM. The TGI [54] was 29.7 µM, the TGI [7] was greater than 100 µM and the TGI [8] was greater than 100 µM. It also gave a TGI [9] of 42.3 µM, a TGI [10] greater than 100 µM and a TGI [11] greater than 100 µM. For the same compound, the TGI [55] was 79.1 µM, the TGI [12] was greater than 100 µM and the TGI [13] was 78.6 µM. For the same compound, the TGI [14] was greater than 100 µM, the TGI [15] was 38.1 µM and the TGI [16] was greater than 100 µM. For the same compound, the TGI [17] was 72.7 µM, the TGI [18] was 81.1 µM and the TGI [19] was 42.3 µM. It also gave a TGI [20] of 32.1 µM, a TGI [21] of 30 µM and a TGI [56] of 85.2 µM. For the same compound, the TGI [22] was greater than 100 µM, the TGI [23] was 53.6 µM and the TGI [24] was 41.5 µM. It also gave a TGI [25] greater than 100 µM, a TGI [26] greater than 100 µM and a TGI [27] greater than 100 µM. The TGI [28] was greater than 100 µM, the TGI [29] was greater than 100 µM and the TGI [30] was greater than 100 µM. It also gave a TGI [31] greater than 100 µM, a TGI [32] greater than 100 µM and a TGI [33] greater than 100 µM. For the same compound, the TGI [34] was greater than 100 µM, the TGI [35] was greater than 100 µM and the TGI [57] was 63.8 µM. For the same compound, the TGI [36] was greater than 100 µM, the TGI [37] was greater than 100 µM and the TGI [38] was greater than 100 µM. For the same compound, the TGI [58] was 65.7 µM, the TGI [39] was 53.5 µM and the TGI [40] was 47.1 µM. It also gave a TGI [41] of 31.3 µM, a TGI [59] greater than 100 µM and a TGI [42] greater than 100 µM. It also gave a TGI [43] of 0.835 µM, a TGI [45] of 45.8 µM and a TGI [46] of 9.3 µM. The TGI [47] was greater than 100 µM, the TGI [48] was greater than 100 µM and the TGI [49] was greater than 100 µM. It also gave a TGI [50] of 38.2 µM and a TGI [51] greater than 100 µM.
For `COc1ccc2c(c1)-c1nn(CCN(C)C)c3ccc(C(=O)NCCCN(C)CCCNC(=O)c4ccc5c6c(nn5CCN(C)C)-c5cc(OC)ccc5Nc46)c(c13)N2`, the TGI [1] was 1.9 µM, the TGI [2] was 0.633 µM and the TGI [3] was 1.17 µM. The TGI [4] was 7.28 µM, the TGI [5] was 0.948 µM and the TGI [6] was 8.12 µM. It also gave a TGI [53] of 0.141 µM, a TGI [54] of 0.224 µM and a TGI [7] of 0.952 µM. It also gave a TGI [8] of 1.68 µM, a TGI [9] of 0.306 µM and a TGI [10] of 1.74 µM. The TGI [11] was 10.9 µM, the TGI [55] was 2.63 µM and the TGI [12] was 1.32 µM. It also gave a TGI [15] of 1.74 µM, a TGI [16] of 1.47 µM and a TGI [17] of 1.14 µM. The TGI [19] was 0.898 µM, the TGI [20] was 1.33 µM and the TGI [21] was 0.762 µM. It also gave a TGI [56] of 1.97 µM, a TGI [22] of 0.689 µM and a TGI [23] of 0.262 µM. For the same compound, the TGI [24] was 0.564 µM, the TGI [25] was 0.0653 µM and the TGI [26] was 0.541 µM. The TGI [27] was 0.384 µM, the TGI [28] was 1.11 µM and the TGI [29] was 0.273 µM. It also gave a TGI [30] greater than 62.9 µM, a TGI [31] of 3.23 µM and a TGI [32] of 0.827 µM. The TGI [33] was 1.66 µM, the TGI [34] was 0.977 µM and the TGI [35] was 1.09 µM. For the same compound, the TGI [57] was 0.0768 µM, the TGI [36] was 0.499 µM and the TGI [37] was 2.46 µM. It also gave a TGI [38] of 3.38 µM, a TGI [58] of 1.56 µM and a TGI [39] of 0.25 µM. It also gave a TGI [40] of 0.48 µM, a TGI [41] of 0.313 µM and a TGI [59] of 3.18 µM. The TGI [42] was 0.983 µM, the TGI [43] was 1.04 µM and the TGI [44] was 0.393 µM. The TGI [45] was 3.39 µM, the TGI [46] was 1.54 µM and the TGI [48] was 4.95 µM. The TGI [49] was 0.825 µM, the TGI [50] was 0.614 µM and the TGI [51] was 0.23 µM. The TGI [52] was 4.41 µM.
In the case of `COc1cc(CNc2nc3cc(C(F)(F)F)ccc3nc2C)cc(OC)c1OC`, the TGI [3] is reported as greater than 100 µM, the TGI [4] is reported as 38.1 µM and the TGI [6] is reported as 96.4 µM. The TGI [53] was 62.6 µM, the TGI [54] was 30.2 µM and the TGI [7] was greater than 100 µM. For the same compound, the TGI [8] was 67.4 µM, the TGI [9] was 37.8 µM and the TGI [10] was 72.2 µM. For the same compound, the TGI [11] was 32.8 µM, the TGI [55] was 51.9 µM and the TGI [12] was 71.3 µM. For the same compound, the TGI [14] was 39.7 µM, the TGI [15] was 33.6 µM and the TGI [16] was 33.3 µM. For the same compound, the TGI [17] was 73.9 µM, the TGI [18] was 40 µM and the TGI [19] was 27.8 µM. The TGI [20] was 30.8 µM, the TGI [21] was 41.8 µM and the TGI [22] was 29.3 µM. It also gave a TGI [23] of 55.5 µM, a TGI [24] of 33.2 µM and a TGI [25] of 50.7 µM. For the same compound, the TGI [27] was 76.1 µM, the TGI [28] was 36 µM and the TGI [29] was 48.5 µM. For the same compound, the TGI [31] was greater than 100 µM, the TGI [34] was greater than 100 µM and the TGI [57] was 65.7 µM. The TGI [36] was 44.7 µM, the TGI [37] was greater than 100 µM and the TGI [38] was 46.5 µM. The TGI [58] was 62.2 µM, the TGI [40] was 65 µM and the TGI [41] was 46.9 µM. It also gave a TGI [42] of 30.8 µM, a TGI [43] greater than 100 µM and a TGI [44] of 57.1 µM. For the same compound, the TGI [45] was 76.1 µM, the TGI [46] was 33.6 µM and the TGI [47] was 40.4 µM. For the same compound, the TGI [48] was 42.6 µM, the TGI [49] was 36.7 µM and the TGI [50] was 37.9 µM. The TGI [52] was 63.9 µM.
